{"source": "patent US20040116351A1", "about": "“Method for enhancing the natural reward system for exercise” (FAST BALANCE, INC., priority 2002, published 2004)", "origin": "cited, not measured here", "details": "administered PEA", "data": [{"smiles": "NCCc1ccccc1", "note": "[PEA, phenylethylamine]", "values": [{"measurement": "Time PEA lasts in the body", "value": "≤ 10", "unit": "min"}]}]}
